Reference: PMC10082216 (Nature Communications, 2023)
Several values for one entry are separate records, joined by “and”; a condition that tells them apart may be missing. Identical values can stand only once. Like-named read-outs stand apart in the source and are kept apart here.

Assay: TD-6450 phase I clinical study (SAD/MAD): pharmacokinetics
Assay type: in vivo, human
Details: for Cmax: read-out: Cmax Mean ± SD; for half-life: read-out: t1/2 Mean ± SD (converted)
Procedure: Primary and secondary outcomes were pre-defined as follows: Safety and tolerability as a primary outcome, pharmacokinetics as a secondary outcome. Safety and tolerability were evaluated using standard measures, including adverse event (AE) monitoring, clinical laboratory tests (hematology, serum chemistry, coagulation, and urinalysis), vital signs, physical examinations, and 12-lead electrocardiograms (ECGs). […]
This study was conducted in two parts, Part A (SAD) and Part B (MAD). For the Part A, the age of enrolled subjects ranged from 20 to 60 years, with a mean age range of 32.1 to 46.2 years. Most subjects were male (73 total subjects) and most were white (55 subjects) or black (22 subjects). For Part B of the study, ages ranged from 23 to 60 years with a similar mean age across treatment groups. Most subjects were male (25 total subjects) and all were either white (18 subjects) or black (12 subjects). For each part of the study, the mean body mass index (BMI) and creatinine clearance were similar across treatment groups. […] Part A: Healthy subjects were sequentially enrolled and randomly assigned to each dose cohort (up to 10 dose-ascending cohorts were planned, including a fed arm in the food effect cohort) to receive either a single dose of TD-6450 or placebo. For each dose cohort, 8 subjects were randomized in a 3:1 ratio (6 subjects received TD-6450 and 2 subjects received placebo). The starting dose of TD-6450 was 0.5 mg with a planned maximum dose of 1000 mg. Upon review of the 500-mg cohort PK data, the decision was made to not escalate to the 1000-mg cohort because of exposure saturation at ≥ 500 mg. The following doses were administered: 0.5 mg, 1.5 mg, 5 mg, 15 mg, 30 mg, 60 mg, 120 mg, 240 mg, and 500 mg. Part B: Healthy subjects were sequentially enrolled in 3 ascending dose cohorts (TD-6450 60 mg, 120 mg, and 240 mg) and randomly assigned to receive either TD-6450 or placebo as once daily doses for 14 days. For each dose cohort, 10 subjects were randomized in a 4:1 ratio (8 subjects received TD-6450 and 2 subjects received placebo). Blinded safety, tolerability, and available PK data after each dose cohort were reviewed by the Safety Data Review Committee (SDRC) before escalation to the next dosing cohort for both part A and B. Subjects of the clinical study were randomly assigned to each cohort. Randomizations codes were assigned to the subjects. All study subjects, study investigators, and the sponsor’s staff involved in the conduct of the study were blinded to treatment assignment. The only personnel who had access to the randomization code before database lock were: The pharmacist or pharmacy staff member who prepared drug or placebo capsules for administration to the subject according to the randomization code and the bioanalytical contract laboratory that analyzed the PK samples (plasma and urine).

[1] = Male subjects, SAD arm NCT02022306, Dose 30.00, 3 Hours
[2] = Male subjects, SAD arm NCT02022306, Dose 30.00, 4 Hours
[3] = Male subjects, SAD arm NCT02022306, Dose 30.00, 72 Hours
[4] = Male subjects, SAD arm NCT02022306, Dose 30.00, 96 Hours
[5] = Male subjects, SAD arm NCT02022306, Dose 30.00, 120 Hours
[6] = Male subjects, SAD arm NCT02022306, Dose 30.00, 144 Hours
[7] = Male subjects, SAD arm NCT02022306, Dose 30.00, 168 Hours
[8] = Male subjects, SAD arm NCT02022306, Dose 30.00, Predose
[9] = both sexes, human, plasma, oral, 1.5 mg, SAD 1.5 mg
[10] = both sexes, human, plasma, oral, 5 mg, SAD 5 mg
[11] = both sexes, human, plasma, oral, 15 mg, SAD 15 mg
[12] = both sexes, human, plasma, oral, 30 mg, SAD 30 mg

CNC(=O)N1C[C@@H](C)N(c2ccc(C(=O)Nc3ccc(-c4ccc(-c5c[nH]c([C@@H]6CCCN6C(=O)[C@@H](NC(=O)OC)C(C)C)n5)cc4)c(OC(F)(F)F)c3)cn2)C[C@@H]1C [TD-6450]
Concentration (Female subjects, SAD arm NCT02022306, Dose 0.50, Predose): 0.00 ng/mL | Concentration (Female subjects, SAD arm NCT02022306, Dose 5.00, Predose): 0.00 ng/mL | Concentration (Female subjects, SAD arm NCT02022306, Dose 15.00, Predose): 0.00 ng/mL | Concentration (Female subjects, SAD arm NCT02022306, Dose 30.00, 3 Hours): 41.80 ng/mL | Concentration (Female subjects, SAD arm NCT02022306, Dose 30.00, 4 Hours): 44.70 ng/mL | Concentration (Female subjects, SAD arm NCT02022306, Dose 30.00, 6 Hours): 43.90 ng/mL | Concentration (Female subjects, SAD arm NCT02022306, Dose 30.00, 8 Hours): 35.40 ng/mL | Concentration (Female subjects, SAD arm NCT02022306, Dose 30.00, 12 Hours): 27.90 ng/mL | Concentration (Female subjects, SAD arm NCT02022306, Dose 30.00, 24 Hours): 20.20 ng/mL | Concentration (Female subjects, SAD arm NCT02022306, Dose 30.00, 48 Hours): 17.50 ng/mL | Concentration (Female subjects, SAD arm NCT02022306, Dose 30.00, 72 Hours): 12.70 ng/mL | Concentration (Female subjects, SAD arm NCT02022306, Dose 30.00, 96 Hours): 9.33 ng/mL | Concentration (Female subjects, SAD arm NCT02022306, Dose 30.00, 120 Hours): 7.89 ng/mL | Concentration (Female subjects, SAD arm NCT02022306, Dose 30.00, 144 Hours): 6.17 ng/mL | Concentration (Female subjects, SAD arm NCT02022306, Dose 30.00, 168 Hours): 4.12 ng/mL | Concentration (Female subjects, SAD arm NCT02022306, Dose 30.00, Predose): 0.00 ng/mL | Concentration (Female subjects, SAD arm NCT02022306, Dose 60.00, Predose): 0.00 ng/mL | Concentration (Male subjects, SAD arm NCT02022306, Dose 0.50, Predose): 0.00 ng/mL | Concentration (Male subjects, SAD arm NCT02022306, Dose 1.50, Predose): 0.00 ng/mL | Concentration (Male subjects, SAD arm NCT02022306, Dose 5.00, Predose): 0.00 ng/mL | Concentration (Male subjects, SAD arm NCT02022306, Dose 15.00, Predose): 0.00 ng/mL | Concentration [1]: 16.10 ng/mL | Concentration (ng/ml) [1]: 14.80 ng/mL | Concentration [2]: 17.80 ng/mL | Concentration (ng/ml) [2]: 18.90 ng/mL | Concentration (Male subjects, SAD arm NCT02022306, Dose 30.00, 6 Hours): 21.60 ng/mL | Concentration (Male subjects, SAD arm NCT02022306, Dose 30.00, 8 Hours): 20.90 ng/mL | Concentration (Male subjects, SAD arm NCT02022306, Dose 30.00, 12 Hours): 16.40 ng/mL | Concentration (Male subjects, SAD arm NCT02022306, Dose 30.00, 24 Hours): 12.70 ng/mL | Concentration (Male subjects, SAD arm NCT02022306, Dose 30.00, 48 Hours): 9.02 ng/mL | Concentration [3]: 7.45 ng/mL | Concentration (ng/ml) [3]: 9.39 ng/mL | Concentration [4]: 6.04 ng/mL | Concentration (ng/ml) [4]: 7.13 ng/mL | Concentration [5]: 4.98 ng/mL | Concentration (ng/ml) [5]: 5.80 ng/mL | Concentration [6]: 3.71 ng/mL | Concentration (ng/ml) [6]: 4.24 ng/mL | Concentration [7]: 3.30 ng/mL | Concentration (ng/ml) [7]: 3.28 ng/mL | Concentration [8]: 0.00 ng/mL | Concentration (ng/ml) [8]: 0.00 ng/mL | Concentration (ng/ml) (Male subjects, SAD arm NCT02022306, Dose 60.00, 8 Hours): 61.90 ng/mL and 92.80 ng/mL and 97.50 ng/mL and 65.40 ng/mL | Concentration (ng/ml) (Male subjects, SAD arm NCT02022306, Dose 60.00, Predose): 0.00 ng/mL | Concentration (ng/ml) (Male subjects, SAD arm NCT02022306, Dose 120.00, Predose): 0.00 ng/mL | Concentration (ng/ml) (Male subjects, SAD arm NCT02022306, Dose 240.00, Predose): 0.00 ng/mL | Concentration (ng/ml) (Male subjects, SAD arm NCT02022306, Dose 500.00, 30 Minutes): 2.54 ng/mL and 3.61 ng/mL and 2.21 ng/mL | Concentration (ng/ml) (Male subjects, SAD arm NCT02022306, Dose 500.00, Predose): 0.00 ng/mL | Cmax (both sexes, human, plasma, oral, 0.5 mg, SAD 0.5 mg): 0.5 ± 0.1 nM | Cmax [9]: 1.5 ± 0.4 nM | half-life [9]: 84.3 h | Cmax [10]: 5.37 ± 1.8 nM | half-life [10]: 71.7 ± 5.2 h | Cmax [11]: 21 ± 7.9 nM | half-life [11]: 77 ± 14.2 h | Cmax [12]: 37.4 ± 19 nM | half-life [12]: 66.9 ± 9 h | Cmax at 1 day (both sexes, human, plasma, oral, 60 mg, MAD 60 mg, day 1, read-out: Cmax Mean ± SD, D1): 97.4 nM | Cmax at 14 day (both sexes, human, plasma, oral, 60 mg, MAD 60 mg, day 14, read-out: Cmax Mean ± SD, D14): 398 ± 146 nM | half-life at 14 day (both sexes, human, plasma, oral, 60 mg, MAD 60 mg, day 14, read-out: t1/2 Mean ± SD, D14 (converted)): 62.3 ± 10 h
